Article PMC4932537, “Search for Potent and Selective Aurora A Inhibitors Based on General Ser/Thr Kinase Pharmacophore Model” (Pharmaceuticals, 2016)

Legend:
[1] = MTT cytotoxicity, MEFs Dko; type: cell-based; details: mouse, MEFs Dko (bax−/−bak−/−)
From the text: (§1) All cells lines were purchased in ATCC (Manassas, VA, USA), except for human primary fibroblasts (HFB), which were a generous gift from Dashinimaev E.B. (Koltsov Institute of Developmental Biology). H1299 (lung adenocarcinoma), H23 (lung adenocarcinoma), Colo320 (colon carcinoma), RS4;11 (acute lymphoblastic leukemia), PC3 (prostate adenocarcinoma) and HL-60 (acute promyelocytic leukemia) were cultivated in RPMI-1640 medium, with addition of 10% fetal calf serum (HyClone, South Logan, Utah, USA) and 2 mM L-Glutamine at 37 °C, 5% CО2. MDA-MB-453 (mammary adenocarcinoma), A549 (lung adenocarcinoma), HCT-116 (colon carcinoma), A431 (epidermoid carcinoma), MDA-MB-231 (mammary adenocarcinoma), BxPC3 (pancreatic adenocarcinoma), MEF (mouse embryonic fibroblasts, SV-40 immortalized), MEF Bax^−/−/Bak^−/− knockout cells (mouse embryonic fibroblasts, SV-40 immortalized, resistant to apoptosis) were cultivated in DMEM medium, with addition of 10% fetal calf serum (HyClone) and 2 mM L-Glutamine at 37 °C, 5% CО2.
(§2) Cells were seeded in 96-well plates (Corning, NY, USA): 5000 cells per well for adhesive cultures and cells, 25,000 cells per well for suspension cultures. Analyzed substances were added in 0.1–50 μM concentration range, with 2 × dilutions, and incubated for 72 h at 37 °C, 5% CО2. After incubation 20 uL of 5 mg/mL of water solution of 3-(4,5-dimethylthiazol-2-yl)-2,5-diphenyltetrazolium bromide (MTT, PANEKO, Moscow, Russia) was added to the cells and they were incubated for additional 4 h. After the incubation the medium was aspirated, cells were dissolved in 100 uL of DMSO and the optical density was measured at 570 nm with a МultiscanFC plate reader (ThermoScientific, Cambridge, MA, USA). The percentage of surviving cells at each dose was calculated by dividing the optical density of treated cells by the optical density of untreated control (which was taken as 100%). The IC50s were calculated in GraphPad Prism 5.0.

[2] = tested on: Colo-320 (colon carcinoma); assay: MTT cytotoxicity, Colo-320; type: cell-based; details: Homo sapiens; Colo-320, MTT, 72 h
From the text: as §1, §2

[3] = tested on: A-549 (lung adenocarcinoma); assay: MTT cytotoxicity, A-549; type: cell-based; details: Homo sapiens, A549; A-549, MTT, 72 h
From the text: as §1, §2

[4] = tested on: HCT-116 (colon carcinoma); assay: MTT cytotoxicity, HCT-116; type: cell-based; details: Homo sapiens; HCT-116, MTT, 72 h
From the text: as §1, §2

[5] = tested on: PC3 (prostate adenocarcinoma); assay: MTT cytotoxicity, PC3; type: cell-based; details: 72 h
From the text: as §1, §2

MTT cytotoxicity, HFB = type: cell-based; details: human, human primary fibroblasts (HFB)
From the text: as §1, §2

[6] = tested on: HL-60 (acute promyelocytic leukemia); assay: MTT cytotoxicity, HL-60; type: cell-based; details: Homo sapiens; HL-60, MTT, 72 h
From the text: as §1, §2

[7] = tested on: MDA-MB231 (mammary adenocarcinoma); assay: MTT cytotoxicity, MDA-MB231; type: cell-based; details: Homo sapiens, MDA-MB-231, 72 h
From the text: as §1, §2

[8] = tested on: RS4;11 (acute lymphoblastic leukemia); assay: MTT cytotoxicity, RS4;11; type: cell-based; details: Homo sapiens; RS4;11, MTT, 72 h
From the text: as §1, §2

[9] = tested on: A431 (epidermoid carcinoma); assay: MTT cytotoxicity, A431; type: cell-based; details: Homo sapiens, A-431, 72 h
From the text: as §1, §2

[10] = tested on: MDA-MB-453 (mammary adenocarcinoma); assay: MTT cytotoxicity, MDA-MB-453; type: cell-based; details: Homo sapiens; MDA-MB-453, MTT, 72 h
From the text: as §1, §2

MTT cytotoxicity, MEF WT = type: cell-based; details: mouse
From the text: as §1, §2

[11] = tested on: BxPC3 (pancreatic adenocarcinoma); assay: MTT cytotoxicity, BxPC3; type: cell-based; details: Homo sapiens, BXPC-3, 72 h
From the text: as §1, §2

Aurora A = target: T1, Aurora A (Homo sapiens, UniProt O14965); assay: Aurora A kinase inhibition (biochemical assay); details: Table 2; Mean ± SEM, four repeats; read-out: Aurora A kinase inhibition IC50
T1 sequence (O14965 1-403): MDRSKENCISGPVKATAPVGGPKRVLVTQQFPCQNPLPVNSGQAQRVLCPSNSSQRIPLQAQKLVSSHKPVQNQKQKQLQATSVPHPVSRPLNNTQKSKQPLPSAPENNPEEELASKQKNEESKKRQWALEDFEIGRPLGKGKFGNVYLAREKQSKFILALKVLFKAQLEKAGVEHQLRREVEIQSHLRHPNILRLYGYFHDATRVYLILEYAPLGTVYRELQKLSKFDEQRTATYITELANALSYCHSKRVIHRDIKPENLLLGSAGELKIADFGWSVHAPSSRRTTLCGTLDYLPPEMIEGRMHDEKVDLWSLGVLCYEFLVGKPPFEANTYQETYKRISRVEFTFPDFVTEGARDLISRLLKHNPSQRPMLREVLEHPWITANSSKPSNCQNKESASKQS

[12] = tested on: H23 (lung adenocarcinoma); assay: MTT cytotoxicity, H23; type: cell-based; details: 72 h
From the text: as §1, §2

[13] = tested on: H1299 (lung adenocarcinoma); assay: MTT cytotoxicity, H1299; type: cell-based; details: Homo sapiens, NCI-H1299, 72 h
From the text: as §1, §2

EPHA2 = EPHA2 (Homo sapiens, UniProt P29317); assay: EPHA2 kinase selectivity; type: biochemical; details: Mean ± SEM
CSK = CSK (Homo sapiens, UniProt P41240); assay: CSK kinase selectivity; type: biochemical; details: Mean ± SEM
Aurora B = Aurora B (Homo sapiens, UniProt Q96GD4); assay: Aurora B kinase inhibition; type: biochemical; details: Table 3; Mean ± SEM
JNK3 = JNK3 (Homo sapiens, UniProt P53779); assay: JNK3 kinase selectivity; type: biochemical; details: Mean ± SEM
RON = RON (Homo sapiens, UniProt Q04912); assay: RON kinase selectivity; type: biochemical; details: Mean ± SEM
c-Kit = c-Kit (Homo sapiens, UniProt P10721); assay: c-Kit kinase selectivity; type: biochemical; details: Mean ± SEM
LYN = LYN (Homo sapiens, UniProt P07948); assay: LYN kinase selectivity; type: biochemical; details: Mean ± SEM
[14] = Solubility (nephelometry); type: physicochemical; details: kinetic from dmso stock
CYP3A4 = CYP3A4 (Homo sapiens, UniProt P08684); assay: CYP3A4 inhibition; type: in vitro ADME; details: Mean ± SEM
CYP2C19 = CYP2C19 (Homo sapiens, UniProt P33261); assay: CYP2C19 inhibition; type: in vitro ADME; details: Mean ± SEM
GSK-3 = GSK-3 kinase selectivity; type: biochemical; details: Mean ± SEM
CYP 2C9 = CYP 2C9 (Homo sapiens, UniProt P11712); assay: CYP 2C9 inhibition; type: in vitro ADME; details: Mean ± SEM
CYP 2C9, sequence (P11712 whole entry): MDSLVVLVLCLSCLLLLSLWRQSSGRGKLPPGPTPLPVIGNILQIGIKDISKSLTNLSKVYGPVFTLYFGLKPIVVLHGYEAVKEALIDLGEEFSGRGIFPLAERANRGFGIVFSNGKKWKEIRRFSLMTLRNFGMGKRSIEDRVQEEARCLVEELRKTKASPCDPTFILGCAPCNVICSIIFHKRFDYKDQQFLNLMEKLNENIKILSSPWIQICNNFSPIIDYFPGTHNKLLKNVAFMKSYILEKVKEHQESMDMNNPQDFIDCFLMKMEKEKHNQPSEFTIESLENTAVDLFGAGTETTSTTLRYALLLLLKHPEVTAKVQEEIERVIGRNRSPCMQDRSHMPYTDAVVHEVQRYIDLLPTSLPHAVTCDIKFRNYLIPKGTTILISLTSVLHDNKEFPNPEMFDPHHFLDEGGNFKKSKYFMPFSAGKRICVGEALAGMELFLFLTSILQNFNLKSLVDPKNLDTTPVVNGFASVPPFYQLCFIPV

Aurora B, sequence (Q96GD4 whole entry): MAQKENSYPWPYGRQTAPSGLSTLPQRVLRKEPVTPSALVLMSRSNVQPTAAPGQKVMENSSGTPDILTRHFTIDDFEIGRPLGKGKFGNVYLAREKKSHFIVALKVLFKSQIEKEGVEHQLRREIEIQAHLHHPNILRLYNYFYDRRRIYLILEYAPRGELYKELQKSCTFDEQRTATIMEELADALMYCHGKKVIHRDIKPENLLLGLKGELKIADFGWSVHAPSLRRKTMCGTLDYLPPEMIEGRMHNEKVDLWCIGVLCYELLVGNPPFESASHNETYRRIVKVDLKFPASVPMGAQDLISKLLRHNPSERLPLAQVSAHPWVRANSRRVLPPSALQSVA
JNK3, sequence (P53779 whole entry, species assumed): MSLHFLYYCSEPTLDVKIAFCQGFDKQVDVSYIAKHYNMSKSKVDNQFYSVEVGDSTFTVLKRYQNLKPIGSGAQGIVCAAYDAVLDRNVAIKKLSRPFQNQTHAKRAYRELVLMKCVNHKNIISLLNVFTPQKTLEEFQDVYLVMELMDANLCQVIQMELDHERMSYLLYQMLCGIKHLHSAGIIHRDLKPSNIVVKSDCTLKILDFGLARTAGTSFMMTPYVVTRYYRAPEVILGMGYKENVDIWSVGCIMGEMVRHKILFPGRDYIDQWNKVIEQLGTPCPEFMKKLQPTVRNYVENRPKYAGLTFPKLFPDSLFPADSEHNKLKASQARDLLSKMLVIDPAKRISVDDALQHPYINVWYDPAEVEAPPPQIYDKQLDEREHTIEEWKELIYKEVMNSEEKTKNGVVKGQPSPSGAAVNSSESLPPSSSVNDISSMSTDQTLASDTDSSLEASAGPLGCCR
CYP2C19, sequence (P33261 whole entry): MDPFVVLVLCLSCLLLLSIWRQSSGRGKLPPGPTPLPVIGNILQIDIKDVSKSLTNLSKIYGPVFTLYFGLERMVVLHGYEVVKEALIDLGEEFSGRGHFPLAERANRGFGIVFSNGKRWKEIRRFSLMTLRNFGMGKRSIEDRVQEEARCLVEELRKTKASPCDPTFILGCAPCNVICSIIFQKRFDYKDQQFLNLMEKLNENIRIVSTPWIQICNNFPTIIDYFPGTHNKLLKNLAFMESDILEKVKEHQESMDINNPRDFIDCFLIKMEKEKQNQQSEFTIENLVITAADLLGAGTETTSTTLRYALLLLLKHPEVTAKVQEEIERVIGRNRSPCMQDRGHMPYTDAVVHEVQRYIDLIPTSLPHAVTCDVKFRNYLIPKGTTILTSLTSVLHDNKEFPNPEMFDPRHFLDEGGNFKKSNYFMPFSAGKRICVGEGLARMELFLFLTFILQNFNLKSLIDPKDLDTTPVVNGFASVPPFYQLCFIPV
CYP3A4, sequence (P08684 whole entry): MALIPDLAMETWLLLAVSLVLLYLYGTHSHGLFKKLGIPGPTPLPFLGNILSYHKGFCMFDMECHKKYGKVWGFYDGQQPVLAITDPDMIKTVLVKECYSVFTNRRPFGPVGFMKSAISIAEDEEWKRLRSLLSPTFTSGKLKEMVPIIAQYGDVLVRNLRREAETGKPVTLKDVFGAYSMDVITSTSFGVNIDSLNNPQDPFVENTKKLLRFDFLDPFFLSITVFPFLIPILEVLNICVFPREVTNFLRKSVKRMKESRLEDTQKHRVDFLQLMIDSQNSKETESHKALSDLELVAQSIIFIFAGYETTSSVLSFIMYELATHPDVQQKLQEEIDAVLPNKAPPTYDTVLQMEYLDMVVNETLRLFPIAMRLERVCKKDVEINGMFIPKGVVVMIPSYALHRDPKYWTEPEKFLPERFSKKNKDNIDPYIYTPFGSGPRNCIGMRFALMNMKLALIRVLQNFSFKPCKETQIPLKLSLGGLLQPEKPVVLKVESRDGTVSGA
c-Kit, sequence (P10721 26-976): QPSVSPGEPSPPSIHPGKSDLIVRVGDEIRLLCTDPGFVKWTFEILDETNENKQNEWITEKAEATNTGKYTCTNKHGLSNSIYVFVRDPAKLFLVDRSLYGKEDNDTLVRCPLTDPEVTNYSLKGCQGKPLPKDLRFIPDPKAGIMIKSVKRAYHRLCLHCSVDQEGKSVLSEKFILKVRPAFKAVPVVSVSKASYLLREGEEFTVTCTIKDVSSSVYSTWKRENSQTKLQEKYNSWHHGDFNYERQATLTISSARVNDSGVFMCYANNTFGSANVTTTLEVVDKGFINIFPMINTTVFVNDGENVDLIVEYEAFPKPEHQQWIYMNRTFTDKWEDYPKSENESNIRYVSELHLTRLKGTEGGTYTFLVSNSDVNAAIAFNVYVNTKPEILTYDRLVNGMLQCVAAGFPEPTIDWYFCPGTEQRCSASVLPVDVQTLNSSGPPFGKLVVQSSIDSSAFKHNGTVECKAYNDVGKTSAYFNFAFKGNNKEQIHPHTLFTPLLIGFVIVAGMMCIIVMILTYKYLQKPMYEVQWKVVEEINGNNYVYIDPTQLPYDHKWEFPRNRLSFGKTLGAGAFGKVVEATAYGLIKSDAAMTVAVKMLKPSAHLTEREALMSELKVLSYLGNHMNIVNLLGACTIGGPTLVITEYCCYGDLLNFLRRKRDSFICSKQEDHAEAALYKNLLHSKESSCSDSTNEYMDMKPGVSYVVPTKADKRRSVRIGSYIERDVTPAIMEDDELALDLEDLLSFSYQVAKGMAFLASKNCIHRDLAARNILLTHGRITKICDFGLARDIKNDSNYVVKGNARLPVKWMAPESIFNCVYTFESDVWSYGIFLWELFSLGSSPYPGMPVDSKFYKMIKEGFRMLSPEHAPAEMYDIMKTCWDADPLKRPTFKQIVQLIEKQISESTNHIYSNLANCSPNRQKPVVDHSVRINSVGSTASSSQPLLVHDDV
LYN, sequence (P07948 whole entry, species assumed): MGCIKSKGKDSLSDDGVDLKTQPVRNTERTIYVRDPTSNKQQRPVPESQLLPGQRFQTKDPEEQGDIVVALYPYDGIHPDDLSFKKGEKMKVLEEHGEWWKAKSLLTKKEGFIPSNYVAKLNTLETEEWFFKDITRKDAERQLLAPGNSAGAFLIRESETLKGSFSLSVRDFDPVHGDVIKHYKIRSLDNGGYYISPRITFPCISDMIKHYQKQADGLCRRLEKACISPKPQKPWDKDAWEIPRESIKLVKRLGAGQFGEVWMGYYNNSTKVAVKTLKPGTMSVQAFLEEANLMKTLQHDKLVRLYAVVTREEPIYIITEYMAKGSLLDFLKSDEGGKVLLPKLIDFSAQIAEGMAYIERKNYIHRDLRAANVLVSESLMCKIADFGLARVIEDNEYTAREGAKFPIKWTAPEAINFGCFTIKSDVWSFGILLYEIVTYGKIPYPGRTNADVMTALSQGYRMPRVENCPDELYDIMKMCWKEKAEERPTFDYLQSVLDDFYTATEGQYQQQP
EPHA2, sequence (P29317 24-976, species assumed): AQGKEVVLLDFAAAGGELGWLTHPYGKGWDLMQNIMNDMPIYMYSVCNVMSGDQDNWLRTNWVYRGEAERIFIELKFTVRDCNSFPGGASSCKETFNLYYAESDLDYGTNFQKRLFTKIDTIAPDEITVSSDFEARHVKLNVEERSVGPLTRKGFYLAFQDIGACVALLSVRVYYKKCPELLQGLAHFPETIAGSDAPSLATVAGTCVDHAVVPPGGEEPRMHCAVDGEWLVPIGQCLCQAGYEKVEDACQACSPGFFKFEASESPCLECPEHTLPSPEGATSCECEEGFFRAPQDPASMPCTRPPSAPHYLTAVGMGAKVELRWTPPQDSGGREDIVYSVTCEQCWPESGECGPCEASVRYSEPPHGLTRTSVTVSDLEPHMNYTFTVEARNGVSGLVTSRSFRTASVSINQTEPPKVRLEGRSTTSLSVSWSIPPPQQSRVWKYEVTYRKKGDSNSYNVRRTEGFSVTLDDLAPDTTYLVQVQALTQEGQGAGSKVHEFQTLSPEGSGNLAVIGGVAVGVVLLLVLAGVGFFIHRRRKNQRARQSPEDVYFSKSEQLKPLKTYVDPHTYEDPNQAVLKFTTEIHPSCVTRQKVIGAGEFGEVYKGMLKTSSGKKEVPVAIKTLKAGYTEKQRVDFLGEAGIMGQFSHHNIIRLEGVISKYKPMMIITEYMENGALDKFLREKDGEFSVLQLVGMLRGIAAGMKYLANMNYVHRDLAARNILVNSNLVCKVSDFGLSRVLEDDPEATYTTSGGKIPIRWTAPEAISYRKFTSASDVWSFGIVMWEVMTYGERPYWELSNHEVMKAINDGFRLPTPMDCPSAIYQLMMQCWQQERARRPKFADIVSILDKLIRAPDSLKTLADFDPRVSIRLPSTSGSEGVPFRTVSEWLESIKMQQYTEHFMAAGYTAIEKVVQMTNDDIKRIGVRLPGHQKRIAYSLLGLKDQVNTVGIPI

SMILES | melting point | IC50 (Aurora A) | IC50 at 48 h [1] | IC50 [2] | IC50 [3] | IC50 [4] | IC50 [5] | IC50 at 72 h (MTT cytotoxicity, HFB) | IC50 [6] | IC50 [7] | IC50 [8] | IC50 [9] | IC50 [10] | IC50 at 48 h (MTT cytotoxicity, MEF WT) | IC50 [11] | IC50 [12] | IC50 [13] | IC50 (Aurora B) | IC50 (JNK3) | solubility [14] | other results
Cc1cc(Nc2ncc(C)s2)nc(CC2CCN(C(=O)c3cccc(Cl)c3F)CC2)n1 [Compound 11, (3-Chloro-2-fluoro-phenyl)-{4-[4-methyl-6-(5-methyl-thiazol-2-ylamino)-pyrimidin-2-ylmethyl]-piperidin-1-yl}-methanone] | 211 to 213 °C | 0.012 ± 0.0011 µM | 3.1 ± 0.32 µM | 0.8 ± 0.09 µM | 5.6 ± 0.5 µM | 3 ± 0.4 µM | 3.2 ± 0.2 µM | 3.6 ± 0.4 µM | 5.4 ± 0.3 µM | 7.3 ± 0.8 µM | 0.5 ± 0.04 µM | 4.6 ± 0.5 µM | 10 ± 1.2 µM | 1 ± 0.2 µM | 2 ± 0.021 µM | 3.9 ± 0.15 µM | 1.7 ± 0.2 µM |  |  |  | 
Cc1cc(Nc2nccs2)nc(CC2CCN(C(=O)c3cccc(Cl)c3F)CC2)n1 [Compound 12, (3-Chloro-2-fluoro-phenyl)-{4-[4-methyl-6-(thiazol-2-ylamino)-pyrimidin-2-ylmethyl]-piperidin-1-yl}-methanone] | 207 to 209 °C | 0.0351 ± 0.00036 µM | 11.8 ± 1.2 µM | 2 ± 0.15 µM | 10 ± 1.2 µM | 6.5 ± 0.7 µM | 6 ± 0.7 µM | 3.8 ± 0.4 µM | 39.8 ± 3.4 µM | 28.2 ± 0.3 µM | 1.5 ± 0.2 µM | 10.2 ± 1.2 µM | 16.3 ± 1.7 µM | 5.8 ± 0.5 µM | 6 ± 0.59 µM | 6.8 ± 0.5 µM | 5 ± 0.4 µM |  |  |  | 
Cc1cc(Nc2ccn[nH]2)nc(CC2CCN(C(=O)c3cccc(Cl)c3F)CC2)n1 [Compound 14, (3-Chloro-2-fluoro-phenyl)-{4-[4-methyl-6-(2H-pyrazol-3-ylamino)-pyrimidin-2-ylmethyl]-piperidin-1-yl}-methanone] | 125 to 128 °C | 0.0053 ± 0.00046 µM |  |  |  |  |  |  |  |  |  |  |  |  |  |  |  | 18.3 µM | 1.63 ± 0.167 µM | > 100 µg/mL | IC50 (c-Kit): 21 µM; IC50 (CYP3A4): 15.1 ± 0.151 µM; IC50 (CYP2C19): 9.6 ± 0.96 µM; IC50 (GSK-3): 0.109 ± 0.0121 µM; IC50 (CYP 2C9): 3.9 ± 0.401 µM
Cc1cc(Nc2ccnc(CC3CCN(C(=O)c4cccc(Cl)c4F)CC3)n2)[nH]n1 [Compound 16, (3-Chloro-2-fluoro-phenyl)-{4-[4-(5-methyl-2H-pyrazol-3-ylamino)-pyrimidin-2-ylmethyl]-piperidin-1-yl}-methanone] |  | 0.0035 ± 0.00029 µM | 4.5 ± 0.5 µM | 1.2 ± 0.03 µM | 8.8 ± 0.9 µM | 4.2 ± 0.4 µM | 8.3 ± 0.8 µM | 3.3 ± 0.3 µM | > 50 µM | > 50 µM | 0.3 ± 0.02 µM | 9 ± 1 µM | 12 ± 1.2 µM | 0.9 ± 0.1 µM | 8.1 ± 0.8 µM | > 50 µM | 1.5 ± 0.12 µM | 4.182 ± 0.0401 µM | 0.572 ± 0.0561 µM | > 100 µg/mL | IC50 (CYP3A4): 0.596 ± 0.0601 µM; IC50 (CYP2C19): 0.966 ± 0.0941 µM; IC50 (GSK-3): 0.293 ± 0.0312 µM; IC50 (CYP 2C9): 0.327 ± 0.033 µM

Now from value to compound, other results behind:

melting point | IC50 (Aurora A) | SMILES | IC50 at 48 h [1] | IC50 [2] | IC50 [3] | IC50 [4] | IC50 [5] | IC50 at 72 h (MTT cytotoxicity, HFB) | IC50 [6] | IC50 [7] | IC50 [8] | IC50 [9] | IC50 [10] | IC50 at 48 h (MTT cytotoxicity, MEF WT) | IC50 [11] | IC50 [12] | IC50 [13] | IC50 (Aurora B) | IC50 (JNK3) | solubility [14] | other results
221 to 223 °C | 0.0041 ± 0.00035 µM | Cc1cc(Nc2ncc(Cl)s2)nc(CC2CCN(C(=O)c3cccc(Cl)c3F)CC2)n1 [Compound 13, (3-Chloro-2-fluoro-phenyl)-{4-[4-(5-chloro-thiazol-2-ylamino)-6-methyl-pyrimidin-2-ylmethyl]-piperidin-1-yl}-methanone] | 3.6 ± 0.3 µM | 1 ± 0.11 µM | 5.1 ± 0.4 µM | 4.4 ± 0.5 µM | 3.9 ± 0.4 µM | 2.8 ± 0.3 µM | 20.9 ± 2.1 µM | 10.5 ± 1.1 µM | 1.1 ± 0.11 µM | 6.1 ± 0.7 µM | 8 ± 0.79 µM | 2.5 ± 0.3 µM | 2.4 ± 0.14 µM | 1.2 ± 0.09 µM | 1.1 ± 0.1 µM | 0.232 ± 0.0241 µM | 0.0852 ± 0.0091 µM | < 10 µg/mL | IC50 (EPHA2): 9 ± 0.985 µM; IC50 (CSK): 9.5 ± 0.101 µM; IC50 (RON): 0.97 ± 0.101 µM; IC50 (c-Kit): 17 µM; IC50 (LYN): 3.27 ± 0.324 µM
120 to 122 °C | 0.0175 ± 0.0021 µM | Cc1cc(Nc2cccc(CC3CCN(C(=O)c4cccc(Cl)c4F)CC3)n2)[nH]n1 [Compound 15, (3-Chloro-2-fluoro-phenyl)-{4-[6-(5-methyl-2H-pyrazol-3-ylamino)-pyridin-2-ylmethyl]-piperidin-1-yl}-Methanone] | 3 ± 0.2 µM | 1 ± 0.12 µM | 5.7 ± 0.6 µM | 2.8 ± 0.3 µM | 9.7 ± 1 µM | 3 ± 0.2 µM | 38.8 ± 3.2 µM | > 50 µM | 0.1 ± 0.02 µM | 6.8 ± 0.7 µM | 5.7 ± 0.6 µM | 0.9 ± 0.08 µM | 7.2 ± 0.6 µM | > 50 µM | 3.7 ± 0.3 µM |  |  |  | 
